c1ccc(-c2nnn[nH]2)cc1
Settings	solubility (mole fraction)
in 1,4-dioxane, 283.15 K	0.00929
in 1,4-dioxane, 285.65 K	0.00982
in 1,4-dioxane, 288.15 K	0.0104
in 1,4-dioxane, 290.65 K	0.0109
in 1,4-dioxane, 293.15 K	0.0114
in 1,4-dioxane, 295.65 K	0.012
in 1,4-dioxane, 298.15 K	0.0125
in 1,4-dioxane, 300.65 K	0.0131
in 1,4-dioxane, 303.15 K	0.0138
in 1,4-dioxane, 305.65 K	0.0145
in 1,4-dioxane, 308.15 K	0.0151
in 1,4-dioxane, 310.65 K	0.0158
in 1,4-dioxane, 313.15 K	0.0165
in 1,4-dioxane, 315.65 K	0.0172
in 1,4-dioxane, 318.15 K	0.018
in 2-butanone, 283.15 K	0.0156
in 2-butanone, 285.65 K	0.0163
in 2-butanone, 288.15 K	0.017
in 2-butanone, 290.65 K	0.0178
in 2-butanone, 293.15 K	0.0185
in 2-butanone, 295.65 K	0.0193
in 2-butanone, 298.15 K	0.0202
in 2-butanone, 300.65 K	0.0211
in 2-butanone, 303.15 K	0.022
in 2-butanone, 305.65 K	0.023
in 2-butanone, 308.15 K	0.0239
in 2-butanone, 310.65 K	0.0249
in 2-butanone, 313.15 K	0.026
in 2-butanone, 315.65 K	0.0271
in 2-butanone, 318.15 K	0.0281
in DMF, 283.15 K	0.208
in DMF, 285.65 K	0.22
in DMF, 288.15 K	0.231
in DMF, 290.65 K	0.244
in DMF, 293.15 K	0.257
in DMF, 295.65 K	0.269
in DMF, 298.15 K	0.282
in DMF, 300.65 K	0.296
in DMF, 303.15 K	0.308
in DMF, 305.65 K	0.322
in DMF, 308.15 K	0.336
in DMF, 310.65 K	0.35
in DMF, 313.15 K	0.365
in DMF, 315.65 K	0.379
in DMF, 318.15 K	0.393
in DMSO, 293.15 K	0.278
in DMSO, 295.65 K	0.291
in DMSO, 298.15 K	0.304
in DMSO, 300.65 K	0.317
in DMSO, 303.15 K	0.33
in DMSO, 305.65 K	0.343
in DMSO, 308.15 K	0.356
in DMSO, 310.65 K	0.369
in DMSO, 313.15 K	0.384
in DMSO, 315.65 K	0.398
in DMSO, 318.15 K	0.412
in acetone, 283.15 K	0.0169
in acetone, 285.65 K	0.0176
in acetone, 288.15 K	0.0184
in acetone, 290.65 K	0.0192
in acetone, 293.15 K	0.02
in acetone, 295.65 K	0.0208
in acetone, 298.15 K	0.0217
in acetone, 300.65 K	0.0226
in acetone, 303.15 K	0.0236
in acetone, 305.65 K	0.0245
in acetone, 308.15 K	0.0256
in acetone, 310.65 K	0.0266
in acetone, 313.15 K	0.0278
in acetone, 315.65 K	0.029
in acetone, 318.15 K	0.0302
in acetonitrile, 283.15 K	0.00181
in acetonitrile, 285.65 K	0.00197
in acetonitrile, 288.15 K	0.00216
in acetonitrile, 290.65 K	0.00236
in acetonitrile, 293.15 K	0.00253
in acetonitrile, 295.65 K	0.0028
in acetonitrile, 298.15 K	0.00307
in acetonitrile, 300.65 K	0.00331
in acetonitrile, 303.15 K	0.00359
in acetonitrile, 305.65 K	0.00389
in acetonitrile, 308.15 K	0.00421
in acetonitrile, 310.65 K	0.00449
in acetonitrile, 313.15 K	0.0049
in acetonitrile, 315.65 K	0.0052
in acetonitrile, 318.15 K	0.00555
in cyclohexane, 283.15 K	3.56e-06
in cyclohexane, 285.65 K	3.93e-06
in cyclohexane, 288.15 K	4.34e-06
in cyclohexane, 290.65 K	4.54e-06
in cyclohexane, 293.15 K	5.04e-06
in cyclohexane, 295.65 K	5.38e-06
in cyclohexane, 298.15 K	5.97e-06
in cyclohexane, 300.65 K	6.41e-06
in cyclohexane, 303.15 K	6.91e-06
in cyclohexane, 305.65 K	7.5e-06
in cyclohexane, 308.15 K	8.16e-06
in cyclohexane, 310.65 K	8.97e-06
in cyclohexane, 313.15 K	9.6e-06
in cyclohexane, 315.65 K	1.04e-05
in cyclohexane, 318.15 K	1.11e-05
in ethanol, 283.15 K	0.0148
in ethanol, 285.65 K	0.0156
in ethanol, 288.15 K	0.0164
in ethanol, 290.65 K	0.0172
in ethanol, 293.15 K	0.0181
in ethanol, 295.65 K	0.019
in ethanol, 298.15 K	0.02
in ethanol, 300.65 K	0.0209
in ethanol, 303.15 K	0.022
in ethanol, 305.65 K	0.023
in ethanol, 308.15 K	0.0241
in ethanol, 310.65 K	0.0253
in ethanol, 313.15 K	0.0264
in ethanol, 315.65 K	0.0277
in ethanol, 318.15 K	0.0289
in ethyl acetate, 283.15 K	0.00628
in ethyl acetate, 285.65 K	0.00648
in ethyl acetate, 288.15 K	0.00665
in ethyl acetate, 290.65 K	0.00691
in ethyl acetate, 293.15 K	0.00717
in ethyl acetate, 295.65 K	0.00746
in ethyl acetate, 298.15 K	0.00773
in ethyl acetate, 300.65 K	0.00804
in ethyl acetate, 303.15 K	0.00838
in ethyl acetate, 305.65 K	0.00878
in ethyl acetate, 308.15 K	0.00918
in ethyl acetate, 310.65 K	0.00961
in ethyl acetate, 313.15 K	0.0101
in ethyl acetate, 315.65 K	0.0106
in ethyl acetate, 318.15 K	0.0111
in isopropanol, 283.15 K	0.0141
in isopropanol, 285.65 K	0.0147
in isopropanol, 288.15 K	0.0155
in isopropanol, 290.65 K	0.0163
in isopropanol, 293.15 K	0.0171
in isopropanol, 295.65 K	0.0179
in isopropanol, 298.15 K	0.0189
in isopropanol, 300.65 K	0.0198
in isopropanol, 303.15 K	0.0208
in isopropanol, 305.65 K	0.0217
in isopropanol, 308.15 K	0.0227
in isopropanol, 310.65 K	0.0237
in isopropanol, 313.15 K	0.0248
in isopropanol, 315.65 K	0.0257
in isopropanol, 318.15 K	0.0268
in methanol, 283.15 K	0.0156
in methanol, 285.65 K	0.0164
in methanol, 288.15 K	0.0172
in methanol, 290.65 K	0.018
in methanol, 293.15 K	0.0189
in methanol, 295.65 K	0.0199
in methanol, 298.15 K	0.0209
in methanol, 300.65 K	0.0219
in methanol, 303.15 K	0.023
in methanol, 305.65 K	0.024
in methanol, 308.15 K	0.0252
in methanol, 310.65 K	0.0264
in methanol, 313.15 K	0.0276
in methanol, 315.65 K	0.0289
in methanol, 318.15 K	0.0302
in n-propanol, 283.15 K	0.0136
in n-propanol, 285.65 K	0.0142
in n-propanol, 288.15 K	0.0148
in n-propanol, 290.65 K	0.0154
in n-propanol, 293.15 K	0.016
in n-propanol, 295.65 K	0.0167
in n-propanol, 298.15 K	0.0174
in n-propanol, 300.65 K	0.0181
in n-propanol, 303.15 K	0.0188
in n-propanol, 305.65 K	0.0196
in n-propanol, 308.15 K	0.0204
in n-propanol, 310.65 K	0.0213
in n-propanol, 313.15 K	0.0221
in n-propanol, 315.65 K	0.023
in n-propanol, 318.15 K	0.0239
in toluene, 283.15 K	2.5e-05
in toluene, 285.65 K	2.85e-05
in toluene, 288.15 K	3.35e-05
in toluene, 290.65 K	3.84e-05
in toluene, 293.15 K	4.45e-05
in toluene, 295.65 K	5.09e-05
in toluene, 298.15 K	5.84e-05
in toluene, 300.65 K	6.64e-05
in toluene, 303.15 K	7.62e-05
in toluene, 305.65 K	8.68e-05
in toluene, 308.15 K	9.91e-05
in toluene, 310.65 K	0.000113
in toluene, 313.15 K	0.000129
in toluene, 315.65 K	0.000146
in toluene, 318.15 K	0.000165

From BigSolDB 2.1
